Results on 13 molecules are retold here after PubChem BioAssay (NCI).

Test systems include XF 498 CNS; SF-539 CNS; SNB-75 CNS; NCI-H226 lung; M19-MEL melanoma; SK-MEL-28 melanoma; SK-MEL-5 melanoma; NCI-H460 lung; SK-OV-3 ovarian; MDA-MB-435; HT29 colon.
Experiment in all cases: inhibition of tumour cell growth, NCI panel, 48 h

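The compound was tested at five concentrations on cells cultured in 96-well plates, with a 48-hour exposure period. GI50 is the concentration that inhibits growth by half. The concentration for full growth arrest is given as TGI.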

Take `CCn1c2ccccc2c2c(-c3ccccc3)cc3c(c21)C(=O)N(c1ccccc1)C3=O`: the TGI with XF 498 CNS, in the test on SF-539 CNS, with SNB-75 CNS, in the test on NCI-H226 lung, in the test on M19-MEL melanoma and in the test on SK-MEL-28 melanoma was > 100 µM throughout. Besides, the TGI in the test on SK-MEL-5 melanoma, in the test with NCI-H460 lung and with SK-OV-3 ovarian was > 100 µM throughout.
On to `COc1nc2ccc(COc3ccc(C(=O)O)cc3)cc2nc1OC`, for which the TGI was > 100 µM in the test on MDA-MB-435; > 100 µM with SF-539 CNS; 53.4 µM in the test on SNB-75 CNS; > 100 µM with HT29 colon; > 100 µM in the test on NCI-H226 lung; > 100 µM in the test with SK-MEL-28 melanoma. In addition, the TGI with SK-MEL-5 melanoma, in the test on NCI-H460 lung and in the test with SK-OV-3 ovarian was > 100 µM throughout.
Turning to `Cn1cc(S(=O)(=O)NC(=O)Nc2ccc(Cl)cc2)c(=O)c2ccc(F)cc21`, the TGI with MDA-MB-435, in the test on SF-539 CNS, in the test with SNB-75 CNS, in the test on HT29 colon, in the test on NCI-H226 lung and in the test with SK-MEL-28 melanoma was > 100 µM throughout. Besides, the TGI in the test on SK-MEL-5 melanoma, in the test on NCI-H460 lung and in the test on SK-OV-3 ovarian was > 100 µM each time.
Turning to `CCN1CCC(CNC(=O)c2ccc(N)cc2)N1CC` (stereo not given), the TGI with MDA-MB-435, in the test on SF-539 CNS, with SNB-75 CNS, with HT29 colon, with NCI-H226 lung and in the test on SK-MEL-28 melanoma was > 100 µM each time. Besides, the TGI in the test on SK-MEL-5 melanoma, with NCI-H460 lung and with SK-OV-3 ovarian was > 100 µM throughout.
Turning to `Nc1nc(Cl)c(Cl)c(NCC2(O)CCC2)n1`, the TGI in the test on MDA-MB-435, with SF-539 CNS, with SNB-75 CNS, with HT29 colon, in the test with NCI-H226 lung and with SK-MEL-28 melanoma was > 100 µM in each case. The TGI in the test with SK-MEL-5 melanoma, in the test with NCI-H460 lung and in the test on SK-OV-3 ovarian was > 100 µM throughout.
Turning to `Cc1ccc2c(c1)nc1n2C(N)=Nc2ccccc2S1`, the TGI in the test on MDA-MB-435, in the test with SF-539 CNS, in the test with SNB-75 CNS, with HT29 colon, in the test with NCI-H226 lung and in the test with SK-MEL-28 melanoma was > 100 µM each time. Further, the TGI with SK-MEL-5 melanoma, in the test with NCI-H460 lung and in the test with SK-OV-3 ovarian was > 100 µM each time.
As for `CC1(C)COC2=C(C1)C(=O)c1ccccc1C2=O`, the TGI stood at 0.338 µM in the test on MDA-MB-435; 2.9 µM in the test with SF-539 CNS; 3.04 µM with SNB-75 CNS; 5.41 µM with HT29 colon; 4.8 µM in the test with NCI-H226 lung; 3.11 µM in the test on SK-MEL-28 melanoma. In addition, the results for the TGI in the test with SK-MEL-5 melanoma, in the test with NCI-H460 lung and in the test with SK-OV-3 ovarian were 1.88 µM, 3.64 µM and 3.72 µM, respectively.
As to `CCCCCCCCCCCCCC[n+]1ccc(C)cc1`, the GI50 was 0.638 µM in the test on MDA-MB-435; 1.77 µM with SF-539 CNS; 0.806 µM in the test with SNB-75 CNS; 0.356 µM in the test on HT29 colon; 0.915 µM with NCI-H226 lung; 1.44 µM in the test on SK-MEL-28 melanoma. Moreover, the GI50 in the test with SK-MEL-5 melanoma is 0.548 µM; in the test on NCI-H460 lung, 0.994 µM; in the test with SK-OV-3 ovarian, 1.8 µM. The TGI turned out to be 2.16 µM with MDA-MB-435; 4.72 µM with SF-539 CNS; 2.37 µM with SNB-75 CNS; 1.82 µM in the test with HT29 colon; 5.59 µM with NCI-H226 lung; 3.09 µM with SK-MEL-28 melanoma. Further, the TGI in the test on SK-MEL-5 melanoma amounted to 1.81 µM; with NCI-H460 lung it was 2.23 µM; in the test on SK-OV-3 ovarian, 5.56 µM.
Turning to `C/C(=N\Nc1nc2ccccc2s1)c1cc2ccccc2cn1`, the TGI is 72.8 µM with MDA-MB-435; 25.6 µM in the test with SF-539 CNS; 32.4 µM with SNB-75 CNS; 11 µM with HT29 colon; 7.56 µM with NCI-H226 lung; > 100 µM in the test on SK-MEL-28 melanoma. Moreover, the results for the TGI with SK-MEL-5 melanoma, with NCI-H460 lung and in the test on SK-OV-3 ovarian were 11.9 µM, 33.7 µM and 10.7 µM, respectively.
`COc1cc(C(C)O)c[n+](CCC2CNc3ccccc32)c1` (stereo not given): the TGI with XF 498 CNS, in the test on SF-539 CNS, with SNB-75 CNS, in the test with HT29 colon, in the test on NCI-H226 lung and with M19-MEL melanoma was > 100 µM in each case. The TGI in the test on SK-MEL-5 melanoma and in the test with NCI-H460 lung was > 100 µM throughout.
On to `O=C(/C(=C\I)c1ccccc1)c1ccccc1`, for which the TGI in the test on MDA-MB-435 was 26.5 µM; in the test on SF-539 CNS, 35.1 µM; with SNB-75 CNS, > 39.5 µM; in the test with HT29 colon, 4.95 µM; with NCI-H226 lung, 53.5 µM; in the test with SK-MEL-28 melanoma, 5.88 µM. Moreover, the TGI in the test on SK-MEL-5 melanoma was found to be 31.3 µM; with NCI-H460 lung, 27.3 µM; in the test on SK-OV-3 ovarian, 32.3 µM.
Turning to `CC1(C)OC2OC(C(COS(=O)(=O)C(F)(F)F)N=[N+]=[N-])C(OC(=O)c3ccccc3)C2O1` (stereo not given), the TGI in the test with MDA-MB-435, in the test on SF-539 CNS, in the test with SNB-75 CNS, with HT29 colon, in the test with NCI-H226 lung and in the test with SK-MEL-28 melanoma was > 100 µM throughout. Further, the TGI with SK-MEL-5 melanoma, in the test on NCI-H460 lung and with SK-OV-3 ovarian was > 100 µM each time.
On to `c1ccc2c(c1)cc1n2CCc2c-1[nH]c1ccccc21`, for which the TGI with MDA-MB-435, with SF-539 CNS, in the test with SNB-75 CNS, in the test with HT29 colon, with NCI-H226 lung and in the test with SK-MEL-28 melanoma was > 10 µM throughout. The TGI with SK-MEL-5 melanoma, with NCI-H460 lung and in the test with SK-OV-3 ovarian was > 10 µM each time.
